Source: PubChem BioAssay AID1259411 (Chemical Carcinogenesis Research Information System (CCRIS), 2018)
Calls of active or inactive are those of the source. No rule for the calls is given here.

System: rodent carcinogenicity bioassays, tumor incidence
Experiment: CCRIS carcinogenicity studies
Settings: Dose: 0, Dose: 0
Procedure, shortened: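 Archive of carcinogenicity, mutagenicity, tumor promotion and tumor inhibition results drawn from journals, NCI reports and other sources, expert-reviewed; covers 1985-2011 and is no longer updated.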

CN(C)NC(=O)CCC(=O)O
carcinogen call (Species: MOUSE, Strain/Sex: B6C3F1/FEMALE, Route: ORAL, 5000, 10000 PPM IN DIET FOR 104 WK (STUDY DURATION: 105 WK), 5000, 10000 PPM IN DIET FOR 104 WK (STUDY DURATION: 105 WK)): inactive; negative | carcinogen call (Species: MOUSE, Strain/Sex: B6C3F1/MALE, Route: ORAL, 5000, 10000 PPM IN DIET FOR 104 WK (STUDY DURATION: 105 WK), 5000, 10000 PPM IN DIET FOR 104 WK (STUDY DURATION: 105 WK), Tumor Site: Type of Lesion: LIVER: HEPATOCELLULAR CARCINOMA): equivocal | carcinogen call (Species: Mouse, Strain/Sex: CD-1/Female (50/group), Route: Oral, 300, 3,000, 6,000, 10,000 ppm in diet for 2 yr, 300, 3,000, 6,000, 10,000 ppm in diet for 2 yr, Tumor Site: Type of Lesion: Uterus: at 10,000 ppm): equivocal | carcinogen call (Species: Mouse, Strain/Sex: CD-1/Male (50/group), Route: Oral, 300, 3,000, 6,000, 10,000 ppm in diet for 2 yr, 300, 3,000, 6,000, 10,000 ppm in diet for 2 yr, Tumor Site: Type of Lesion: Vascular tumor: hemangioma and hemangiosarcoma in liver at 10,000 ppm): equivocal | carcinogen call (Species: Mouse, Strain/Sex: Swiss/Male and Female (100/group in controls; 50/group in treated group), Route: Oral, 2% in drinking water (3000 mg/kg/day), 0.003% UDMH (40 ppm impurity) for 2 yr, 2% in drinking water (3000 mg/kg/day), 0.003% UDMH (40 ppm impurity) for 2 yr, Tumor Site: Type of Lesion: Lung: adenomas and adenocarcinomas Vascular tumor: hemangioma and hemangiosarcoma predominantly in liver): equivocal, incidence of lung tumors may be from udmh. | carcinogen call (Species: RAT, Strain/Sex: F344/FEMALE, Route: ORAL, 5000, 10000 PPM IN DIET FOR 104 WK (STUDY DURATION: 105 WK), 5000, 10000 PPM IN DIET FOR 104 WK (STUDY DURATION: 105 WK), Tumor Site: Type of Lesion: ENDOMETRIUM: ADENOCARCINOMA, UTERUS: LEIOMYOSARCOMA): active; positive | carcinogen call (Species: RAT, Strain/Sex: F344/MALE, Route: ORAL, 5000, 10000 PPM IN DIET FOR 104 WK (STUDY DURATION: 105 WK), 5000, 10000 PPM IN DIET FOR 104 WK (STUDY DURATION: 105 WK)): inactive; negative | carcinogen call (Species: Rat, Strain/Sex: Fischer 344/Female (50/group), Route: Oral, 1, 50, 100 ppm in diet for 2 yr, 1, 50, 100 ppm in diet for 2 yr, Tumor Site: Type of Lesion: Liver: increase at 50 and 100 ppm (incidence not reported by CADPR) Uterus: Adenocarcinoma (0, 0, 0, 2)): equivocal, ca dpr described results as providing marginal evidence of treatment | carcinogen call (Species: Rat, Strain/Sex: Fischer 344/Female (50/group), Route: Oral, 100, 500, 5,000, 10,000 ppm in diet for 2 yr, 100, 500, 5,000, 10,000 ppm in diet for 2 yr, Tumor Site: Type of Lesion: Uterus: Adenocarcinoma (0, 1, 2, 1, 1), Leiomyocarcinoma (0, 0, 0, 2, 1)): equivocal, ca dpr noted rarity of the tumors but that mtd not achieved | carcinogen call (Species: Rat, Strain/Sex: Fischer 344/Male (50/group), Route: Oral, 100, 500, 5,000, 10,000 ppm in diet for 2 yr, 100, 500, 5,000, 10,000 ppm in diet for 2 yr): inactive; negative

Clc1ccc(-c2cc(Cl)c(Cl)cc2Cl)cc1Cl
carcinogen call (Species: Rat, Strain/Sex: Harlan Sprague-Dawley/Female (80/Group), Route: Oral, 100, 220, 460, 1000, 4600 ug/kg in corn oil, by gavage, 5 d/wk for 2 yr, 100, 220, 460, 1000, 4600 ug/kg in corn oil, by gavage, 5 d/wk for 2 yr, Tumor Site: Type of Lesion: Liver: cholangiocarcinoma (0/52, 0/51, 0/52, 0/52, 3/52, 36/49, 29/49), hepatocellular adenoma (0/52, 1/51, 1/52, 4/52): active; positive

[P]#[Ga]
carcinogen call (Species: MOUSE, Strain/Sex: ICR/MALE, Route: INTRAPERITONEAL, 48, 480 MG/KG AS GALLIUM SUSPENDED IN OLIVE OIL ONCE (STUDY DURATION: 18 MO), 48, 480 MG/KG AS GALLIUM SUSPENDED IN OLIVE OIL ONCE (STUDY DURATION: 18 MO)): inactive; negative | carcinogen call (Species: MOUSE, Strain/Sex: ICR/MALE, Route: SUBCUTANEOUS, 48, 480 MG/KG AS GALLIUM SUSPENDED IN OLIVE OIL ONCE (STUDY DURATION: 18 MO), 48, 480 MG/KG AS GALLIUM SUSPENDED IN OLIVE OIL ONCE (STUDY DURATION: 18 MO)): inactive; negative

O=C(O)[C@@H](O)[C@@H](O)[C@H](O)[C@@H](O)C(=O)[O-].O=C(O)[C@@H](O)[C@@H](O)[C@H](O)[C@@H](O)C(=O)[O-].O=C(O)[C@@H](O)[C@@H](O)[C@H](O)[C@@H](O)C(=O)[O-].[Fe+3]
carcinogen call (Species: RAT, Strain/Sex: WISTAR/MALE, Route: INTRAPERITONEAL, 5 MG/KG IN GLUCOSE SOLUTION 1/D 6 D/WK FOR 3 MO (STUDY DURATION: 1 YR, 3 MO), Tumor Site: Type of Lesion: PERITONEAL CAVITY: MESOTHELIOMA): active; positive

NCl
carcinogen call (Species: MOUSE, Strain/Sex: B6C3F1/FEMALE, Route: ORAL, 50, 100, 200 PPM IN BUFFERED, CHARCOAL-FILTERED, DEIONIZED WATER FOR 104 WK (STUDY DURATION: 2 YR), 50, 100, 200 PPM IN BUFFERED, CHARCOAL-FILTERED, DEIONIZED WATER FOR 104 WK (STUDY DURATION: 2 YR)): inactive; negative | carcinogen call (Species: MOUSE, Strain/Sex: B6C3F1/MALE, Route: ORAL, 50, 100, 200 PPM IN BUFFERED, CHARCOAL-FILTERED, DEIONIZED WATER FOR 104 WK (STUDY DURATION: 2 YR), 50, 100, 200 PPM IN BUFFERED, CHARCOAL-FILTERED, DEIONIZED WATER FOR 104 WK (STUDY DURATION: 2 YR)): inactive; negative | carcinogen call (Species: RAT, Strain/Sex: F344/MALE, Route: ORAL, 50, 100, 200 PPM IN BUFFERED, CHARCOAL-FILTERED, DEIONIZED WATER FOR 103 WK (STUDY DURATION: 2 YR), 50, 100, 200 PPM IN BUFFERED, CHARCOAL-FILTERED, DEIONIZED WATER FOR 103 WK (STUDY DURATION: 2 YR)): inactive; negative

N[C@@H](CS)C(=O)O
carcinogen call (Species: RAT, Strain/Sex: F344/FEMALE, Route: ORAL, 0.25, 0.5% IN DRINKING WATER FOR 108 WK (STUDY DURATION: 108 WK), 0.25, 0.5% IN DRINKING WATER FOR 108 WK (STUDY DURATION: 108 WK)): inactive; negative | carcinogen call (Species: RAT, Strain/Sex: F344/MALE, Route: ORAL, 0.25, 0.5% IN DRINKING WATER FOR 108 WK (STUDY DURATION: 108 WK), 0.25, 0.5% IN DRINKING WATER FOR 108 WK (STUDY DURATION: 108 WK)): inactive; negative

c1ccncc1
carcinogen call (Species: MOUSE, Strain/Sex: B6C3F1/FEMALE, Route: ORAL, 125, 250, 500 PPM IN DRINKING WATER FOR 105 WK (STUDY DURATION: 105 WK), 125, 250, 500 PPM IN DRINKING WATER FOR 105 WK (STUDY DURATION: 105 WK), Tumor Site: Type of Lesion: LIVER: HEPATOCELLULAR ADENOMA, HEPATOCELLULAR CARCINOMA, OR HEPATOBLASTOMA): active; positive | carcinogen call (Species: MOUSE, Strain/Sex: B6C3F1/MALE, Route: ORAL, 250, 500, 1000 PPM IN DRINKING WATER FOR 104 WK (STUDY DURATION: 104 WK), 250, 500, 1000 PPM IN DRINKING WATER FOR 104 WK (STUDY DURATION: 104 WK), Tumor Site: Type of Lesion: LIVER: HEPATOCELLULAR ADENOMA, HEPATOCELLULAR CARCINOMA, OR HEPATOBLASTOMA): active; positive | carcinogen call (Species: RAT, Strain/Sex: F344/FEMALE, Route: ORAL, 100, 200, 400 PPM IN DRINKING WATER FOR 105 WK (STUDY DURATION: 105 WK), 100, 200, 400 PPM IN DRINKING WATER FOR 105 WK (STUDY DURATION: 105 WK), Tumor Site: Type of Lesion: MULTIPLE ORGANS: MONONUCLEAR CELL LEUKEMIA): equivocal | carcinogen call (Species: RAT, Strain/Sex: F344/MALE, Route: ORAL, 100, 200, 400 PPM IN DRINKING WATER FOR 104 WK (STUDY DURATION: 104 WK), 100, 200, 400 PPM IN DRINKING WATER FOR 104 WK (STUDY DURATION: 104 WK), Tumor Site: Type of Lesion: KIDNEY: RENAL TUBULE ADENOMA, RENAL TUBULE ADENOMA OR CARCINOMA): active; positive | carcinogen call (Species: RAT, Strain/Sex: WISTAR/MALE, Route: ORAL, 100, 200, 400 PPM IN DRINKING WATER FOR 104 WK (STUDY DURATION: 104 WK), 100, 200, 400 PPM IN DRINKING WATER FOR 104 WK (STUDY DURATION: 104 WK), Tumor Site: Type of Lesion: TESTIS: INTERSTITIAL CELL ADENOMA): equivocal
